Patent US5304548A, “Bivalent ligands effective for blocking ACAT enzyme for lowering plasma triglycerides and for elevating HDL cholesterol” (The Upjohn Company, priority 1992, dated 1994)
≈ marks a conversion by molar mass, not a printed value. Entries after “also recorded” stand apart in the source; their conditions may differ.

Legend:
[1] = system: acyl-CoA: cholesterol O-acyltransferase enzyme (ACAT); test: Inhibition of cellular ACAT (esterification of 3H-cholesterol taken up by cells); details: for IC50: ACAT inhibition; for ACAT inhibition, result in words: comparison bivalent vs. monomeric / by dose
[2] = Antiatherosclerotic activity, SEA quail on high cholesterol diet, oral compound, arteries analysed after eight weeks; assay type: in vivo, SEA Japanese quail; details: statistically significant
Method: For example, five to six week old, male, SEA quails were placed on a high cholesterol diet with one group orally receiving the subject ACAT inhibitor compound Ia (Table 2). After eight weeks the arteries were removed, cleaned and homogenized. Total cholesterol, free cholesterol and triglycerides were measured.

[3] = Antiatherosclerotic activity, Netherland dwarf rabbits on cholesterol-containing atherogenic diet, twelve weeks; assay type: in vivo, Netherland dwarf rabbit; details: 50 mg/kg/day
Method: In another experiment, ACAT inhibitor compound Ia (Table 2) was administered for twelve weeks at 50 mg/kg/day to Netherland dwarf rabbits that were feed a cholesterol-containing atherogenic diet. During the twelve week period serum cholesterol, triglycerides, and carnitine were monitored. At the end of the study the aortas from the drug treated group and a non-drug treated group were examined for atherosclerosis development.

[4] = Hypertriglyceridemia model, female Zucker rats (fafa), compound in chow with cross-over; assay type: in vivo, Zucker rat
Method: Female Zucker rats (fafa, 378±3) were maintained on a pelleted chow diet (Purina Chow #5001) or the chow diet which contained Compound Ia (Ia) at a level calculated to deliver 50 mg/kg/day. The Ia containing pellets were prepared from #5001 meal into which the drug had been pre-mixed and subsequently pelletized. […] The plasma was obtained from heparinized blood taken by cardiac puncture and the lipids were measured using an Ektachem DT60 analyzer (Eastman Kodak).

[5] = Hypercholesterolemic model, obese female Zucker rats (fa/fa), dose response of plasma lipids after 1 week; assay type: in vivo, Zucker rat; details: genetically obese Zucker rats
Method: Obese female Zucker rats (fa/fa) weighing 500-600 g were used in the study. These animals are endogenously hypertriglyceridemic and hypercholesterolemic as was described above. Basal plasma triglycerides, cholesterol, and HDL-C levels were determined in individual rats (Ektachem DT 60 Analyzer) which were then randomly assigned to four Compound Ia (Ia) treatment groups (5 mg/kg, n=4; 10 mg/kg, n=4; 20 mg/kg, n=4; 30 mg/kg, n=3). The animals were all individually housed and received Purina Chow pellets (#5002) containing IA at levels calculated to provide the daily doses of Ia described above. After 1 week, all rats were bled by cardiac puncture for determination of plasma triglycerides, cholesterol, and HDL-C. An additional group of rats (n=3) receiving chow alone was run in parallel with the treatment groups as an additional control for the experiment. Each animal acted as its own control since plasma lipid parameters were measured in each animal immediately prior to dosing. The data for triglycerides, cholesterol, and HDL-C were adjusted for this pre-dosing value using a percent change calculation: ((Post-Pre)/Pre)100 . For all 3 measurements, a simple linear model was fit to the percent change value vs log 10 (dose). The logarithmic transformation was used to linearalize the relationship.

[6] = Plasma triglycerides in rats or rabbits whose triglycerides are within normal limits; assay type: in vivo; details: rats or rabbits with triglycerides within normal limits

| Compound | % ACAT Inhibition ([1]; 5 μg/ml) [%] | % ACAT Inhibition ([1]; 10 μg/ml) [%] | % ACAT Inhibition ([1]; 15 μg/ml) [%] | other results |
| --- | --- | --- | --- | --- |
| COc1c2c(c(OC)c3occc13)OC(=CN1CCC(CCCC3CCN(C=C4Oc5c(c(OC)c6ccoc6c5OC)C4=O)CC3)CC1)C2=O [Compound III] | 18 | 29 | 52 |  |
| COc1c2occc2c(OC)c2c(=O)nc(N3CCC(CCCC4CCN(c5nc(=O)c6c(OC)c7ccoc7c(OC)c6o5)CC4)CC3)oc12 [Compound II] | 60 | 89 | 97 | IC50 [1]: 1.8 µg/mL (≈ 2.57 µM) |
| COc1c2c(c(OC)c3occc13)OC(=CNCCCCCCCCNC=C1Oc3c(c(OC)c4ccoc4c3OC)C1=O)C2=O [Compound IX] | 63 | 52 | 51 | ACAT inhibition, result in words [1]: excellent inhibition over its monomeric counterparts; also recorded: surprisingly good inhibitory activity even at the 5 μg/ml dose |
| COc1c2occc2c(OC)c2c(=O)cc(CN3CCC(CCCC4CCN(Cc5cc(=O)c6c(OC)c7ccoc7c(OC)c6o5)CC4)CC3)oc12 [Compound I] | 68 | 84 | 91 | IC50 [1]: 4.2 µg/mL (≈ 5.78 µM); ACAT inhibition, result in words [1]: enhanced potency |
| COc1c2occc2c(OC)c2c(=O)cc(CN3CCC(CCC4CCN(Cc5cc(=O)c6c(OC)c7ccoc7c(OC)c6o5)CC4)CC3)oc12 [Compound Ia] | 87 | 84 | 75 | reduction in the accumulation of esterified cholesterol in the arteries [2]: thirty; mean serum cholesterol level ([3]; control exceeded 2200 mg/dl): 271 mg/dL; atheromatous lesion development ([3]; extensive in controls): negligible atheromatous lesion development; development of hypercholesterolemia ([3]; vs. control): less extensive development of hypercholesterolemia; mean plasma cholesterol ([4]; Ia administration, 50 mg/kg/day, from 126±18): 174 ± 8 mg/dL; plasma cholesterol, cross-over ([4]; controls crossed over to Ia at day 27, from 118±24, three of four animals increased): 164 ± 22 mg/dL; plasma triglycerides, cross-over ([4]; controls crossed over to Ia, 5 day cross-over period, from 2872±742): 656 ± 242 mg/dL; plasma cholesterol after withdrawal ([4]; drug withdrawn day 16): restored essentially to pretreatment levels; plasma triglycerides after withdrawal ([4]; drug withdrawn on day 16, within 1 week): essentially returned to pretreatment levels within 1 week; plasma triglycerides, lowest level reached ([4]; from levels as high as 3000 mg/dl): less than 300 mg/dl; plasma triglycerides ([4]; within 8 days of addition to diet, 50 mg/kg/day, from group mean 2431±446): 260 ± 52 mg/dL; plasma HDL cholesterol, result in words [5]: dose dependent elevation of plasma HDL cholesterol; also recorded: significant linear positive relationship between the % change HDL-C and log 10 (dose); also recorded: ability to elevate HDL-cholesterol; plasma total cholesterol, result in words [5]: without significant changes in plasma total cholesterol; also recorded: hypotriglyceridemic effect can be dissociated from a tendency to elevate plasma cholesterol; plasma triglycerides, result in words [5]: dose-dependent reduction in plasma triglycerides; also recorded: significant negative relationship between % change in plasma triglycerides and log 10 (dose); also recorded: confirmed the triglyceride lowering activity; effect on plasma triglyceride levels [6]: very little effect on plasma triglyceride levels; IC50 [1]: 0.8 µg/mL (≈ 1.12 µM) |
| COc1c2occc2c(OC)c2c(=O)cc(CN3CCN(CCN4CCN(Cc5cc(=O)c6c(OC)c7ccoc7c(OC)c6o5)CC4)CC3)oc12 [Compound Ib] | 5 | 6 | 2 |  |
| COc1c2occc2c(OC)c2c(=O)cc(CN3CCN(CC(O)CN4CCN(Cc5cc(=O)c6c(OC)c7ccoc7c(OC)c6o5)CC4)CC3)oc12 [Compound Ic] | 7 | 13 | 15 |  |
| COc1c2occc2c(OC)c2c(=O)cc(CN3CCC(C4CCN(Cc5cc(=O)c6c(OC)c7ccoc7c(OC)c6o5)CC4)CC3)oc12 [Compound Id] | 0 | 0 | 0 |  |
| COc1c2c(c(OC)c3c(=O)cc(CN4CCC(CCC5CCN(Cc6cc(=O)c7c(OC)c8c(c(OC)c7o6)OCC8)CC5)CC4)oc13)CCO2 [Compound V, 7,7'-(1,2-Ethanediylbis(4,1-piperidinediylmethylene))bis-2,3-dihydro-4,9-dimethoxy-5H-furo(3.2-g)(1)benzopyran-5-one] | 63 | 73 | 74 | IC50 [1]: 3.0 µg/mL (≈ 4.19 µM) |
| COc1c2c(c(OC)c3occc13)OC(=CNCCCN1CCN(CCCNC=C3Oc4c(c(OC)c5ccoc5c4OC)C3=O)CC1)C2=O [Compound VIII] | 32 | 41 | 49 |  |
| COc1c2c(c(OC)c3occc13)OC(=CN1CCC(CCCC3CCN(C=C4Oc5c(c(OC)c6ccoc6c5OC)C4=O)CC3)CC1)C2=O [Compound VII] |  |  |  | ACAT inhibition, result in words [1]: active at the high dose tested (15 μg/ml) |
| COc1c2oc([Si](C)(C)C)cc2c(OC)c2c(=O)cc(CN3CCC(CCC4CCN(Cc5cc(=O)c6c(OC)c7cc([Si](C)(C)C)oc7c(OC)c6o5)CC4)CC3)oc12 [Compound VI] | 18 | 29 | 52 |  |
| COc1c2occc2c(OC)c2c(=O)cc(CN3CCC(C)CC3)oc12 [IV, reference compound] | 10 | 27 | 39 | ACAT inhibition, result in words [1]: reduced percent ACAT inhibition |
| COc1c2c(c(OC)c3occc13)OC(=CNC1CCCCC1)C2=O [reference compound] | 47 | 55 | 65 |  |
| COc1c2c(c(OC)c3occc13)OC(=CNCc1ccccc1)C2=O [reference compound] | 50 | 66 | 78 |  |
